In patent US20100216779A1 (GLAXOSMITHKLINE LLC, priority 2007, published 2010):

Experiments:
[1] = test system: NCI-H929 (multiple myeloma); assay: Inhibition of cell proliferation, CellTiter-Glo, NCI-H929; type: cell-based; details: Homo sapiens, 72 h
In short: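 Cells were grown in medium with 10% FBS at 37° C, 5% CO2. Cell number was read as CellTiter-Glo luminescence (cellular ATP), with untreated wells as control.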

[2] = target: T1, IR (NIH-3T3 cells over expressing human IGF-1R or IR) (Homo sapiens, UniProt P06213); assay: IR cellular autophosphorylation (DELFIA); type: cell-based; details: NIH-3T3 cells over expressing IR, insulin stimulated
T1 construct: expressed in transfected cells; host or cells: NIH-3T3 (mouse fibroblasts)
T1 sequence (P06213 28-1382): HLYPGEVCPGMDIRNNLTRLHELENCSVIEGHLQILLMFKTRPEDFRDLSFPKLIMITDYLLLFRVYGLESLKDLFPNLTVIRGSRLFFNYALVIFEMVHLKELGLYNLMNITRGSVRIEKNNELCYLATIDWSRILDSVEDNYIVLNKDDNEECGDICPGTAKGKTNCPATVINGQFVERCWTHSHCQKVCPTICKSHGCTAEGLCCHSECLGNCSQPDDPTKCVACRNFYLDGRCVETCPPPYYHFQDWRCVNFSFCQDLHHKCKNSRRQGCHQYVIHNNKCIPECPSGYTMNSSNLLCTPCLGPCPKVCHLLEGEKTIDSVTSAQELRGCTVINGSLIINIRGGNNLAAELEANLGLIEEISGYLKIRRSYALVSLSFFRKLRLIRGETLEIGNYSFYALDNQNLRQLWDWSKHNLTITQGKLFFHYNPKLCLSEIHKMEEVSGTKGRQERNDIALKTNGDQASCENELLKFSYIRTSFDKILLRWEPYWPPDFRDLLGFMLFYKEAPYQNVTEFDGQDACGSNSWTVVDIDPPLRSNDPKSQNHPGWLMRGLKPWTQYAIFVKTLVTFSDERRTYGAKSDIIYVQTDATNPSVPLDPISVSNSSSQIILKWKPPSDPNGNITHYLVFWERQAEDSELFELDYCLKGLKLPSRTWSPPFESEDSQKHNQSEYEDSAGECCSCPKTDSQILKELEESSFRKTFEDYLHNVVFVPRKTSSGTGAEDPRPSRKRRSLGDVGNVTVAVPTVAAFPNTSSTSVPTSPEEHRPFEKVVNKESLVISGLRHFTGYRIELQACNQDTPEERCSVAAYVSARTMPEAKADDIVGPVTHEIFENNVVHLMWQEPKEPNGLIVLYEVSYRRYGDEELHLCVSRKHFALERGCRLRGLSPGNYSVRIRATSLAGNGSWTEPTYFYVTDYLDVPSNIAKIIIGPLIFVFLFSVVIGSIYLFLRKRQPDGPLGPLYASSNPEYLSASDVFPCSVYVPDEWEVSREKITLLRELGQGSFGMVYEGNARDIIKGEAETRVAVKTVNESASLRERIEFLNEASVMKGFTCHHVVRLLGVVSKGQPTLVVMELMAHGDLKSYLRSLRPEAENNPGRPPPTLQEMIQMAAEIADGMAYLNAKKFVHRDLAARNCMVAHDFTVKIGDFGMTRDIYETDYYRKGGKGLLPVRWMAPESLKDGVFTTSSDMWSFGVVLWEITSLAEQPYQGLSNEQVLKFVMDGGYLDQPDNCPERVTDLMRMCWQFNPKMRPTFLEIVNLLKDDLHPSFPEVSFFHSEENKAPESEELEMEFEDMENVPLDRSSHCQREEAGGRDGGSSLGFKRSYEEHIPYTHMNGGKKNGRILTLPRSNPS
In short: (§1)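 Readout: DELFIA on lysates, with anti-IGF-1R or anti-IR capture and europium anti-pTyr detection, expressed relative to 100% ligand-stimulated signal. Human IGF-1R- or IR-overexpressing NIH-3T3 cells got compound (1.5 nM–30 uM) for 2 h before 15 min IGF-1 (30 ng/mL) or insulin (3 ug/mL).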

COLO205 (colon) = assay: Inhibition of cell proliferation, CellTiter-Glo, COLO205; type: cell-based; details: Homo sapiens, COLO 205, 72 h
In short: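 Exponentially growing COLO205 cells in medium with 10% FBS were plated below 2000 cells/well at 37 °C, 5% CO2. Untreated wells served as controls.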

[3] = target: T2, human IGF-1R (NIH-3T3 cells over expressing human IGF-1R) (Homo sapiens, UniProt P08069); assay: IGF-1R cellular autophosphorylation (DELFIA); type: cell-based; details: IGF-1 stimulated
T2 construct: expressed in transfected cells; host or cells: NIH-3T3 (mouse fibroblasts)
T2 sequence (P08069 31-1367): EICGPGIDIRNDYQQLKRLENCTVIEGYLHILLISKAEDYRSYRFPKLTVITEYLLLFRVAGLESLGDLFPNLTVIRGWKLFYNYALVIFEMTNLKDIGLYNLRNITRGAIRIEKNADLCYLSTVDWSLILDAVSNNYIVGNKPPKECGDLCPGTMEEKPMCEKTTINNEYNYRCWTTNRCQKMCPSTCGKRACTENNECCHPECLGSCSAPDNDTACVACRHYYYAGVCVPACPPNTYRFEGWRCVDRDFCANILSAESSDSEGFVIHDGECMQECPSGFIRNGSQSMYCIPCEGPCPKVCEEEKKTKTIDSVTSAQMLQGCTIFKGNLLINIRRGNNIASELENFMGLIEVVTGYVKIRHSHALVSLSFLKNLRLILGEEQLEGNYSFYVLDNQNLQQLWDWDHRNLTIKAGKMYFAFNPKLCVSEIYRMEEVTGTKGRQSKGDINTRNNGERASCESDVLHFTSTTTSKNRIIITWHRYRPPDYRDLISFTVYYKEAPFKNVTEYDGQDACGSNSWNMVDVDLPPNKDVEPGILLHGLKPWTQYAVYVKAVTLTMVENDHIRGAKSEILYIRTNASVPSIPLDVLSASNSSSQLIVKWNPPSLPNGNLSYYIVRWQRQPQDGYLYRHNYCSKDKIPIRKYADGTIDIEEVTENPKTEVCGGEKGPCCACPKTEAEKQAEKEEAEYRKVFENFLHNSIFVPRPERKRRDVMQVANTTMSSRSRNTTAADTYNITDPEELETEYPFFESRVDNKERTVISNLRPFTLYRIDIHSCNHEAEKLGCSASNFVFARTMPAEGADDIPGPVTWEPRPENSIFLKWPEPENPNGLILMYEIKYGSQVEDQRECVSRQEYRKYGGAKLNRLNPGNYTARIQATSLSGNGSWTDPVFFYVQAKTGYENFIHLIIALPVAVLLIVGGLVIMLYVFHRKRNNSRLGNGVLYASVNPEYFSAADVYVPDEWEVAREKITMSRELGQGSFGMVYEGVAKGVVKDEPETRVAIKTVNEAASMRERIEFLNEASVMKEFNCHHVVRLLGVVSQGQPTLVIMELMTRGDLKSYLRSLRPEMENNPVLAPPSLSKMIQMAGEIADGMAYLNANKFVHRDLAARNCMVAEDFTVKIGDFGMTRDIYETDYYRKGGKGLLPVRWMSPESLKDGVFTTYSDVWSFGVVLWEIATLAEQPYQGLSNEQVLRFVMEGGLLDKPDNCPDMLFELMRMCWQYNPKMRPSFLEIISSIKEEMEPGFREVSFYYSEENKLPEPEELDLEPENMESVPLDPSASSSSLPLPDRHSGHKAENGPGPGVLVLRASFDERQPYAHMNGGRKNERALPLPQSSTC
In short: as §1

[4] = test system: Colo-205 tumors (colon carcinoma cell line); assay: In vivo efficacy, Colo-205 tumor bearing mice; parameters: species or system mouse
Description: In addition to the LISN xenograft efficacy studies, Example 57 has also been assessed in vivo in two other mouse models of cancer, including: Colo-205 tumor bearing mice (colon carcinoma cell line) and BT474 tumor bearing mice (breast carcinoma cell line). Forty female nude mice bearing Colo-205 tumors (average tumor size of 200 mm3) were randomized into five groups of eight mice and dosed with either vehicle (20% SBE pH3.5) or Example 57 at 100, 30, 10 mg/kg QD or 30 mg/kg BID for 21 days. The groups of mice dosed with the higher doses of Example 57 (100 mg/kg QD and 30 mg/kg BID) lost greater than 20% body weight within 10 days of dosing so were taken off the study and allowed to recover. […] The higher doses of 100 mg/kg QDx10 and 30 mg/kg BIDx10 achieved 72 and 49% tumor growth inhibition respectively.

Row | SMILES | IC50 [1] [nM] | IC50 [2] [nM] | IC50 (COLO205 (colon)) [nM] | IC50 [3] [nM] | tumor growth inhibition ([4]; Colo-205, 10 mg/kg QDx21) [%] | tumor growth inhibition ([4]; Colo-205, 30 mg/kg BIDx10) [%] | tumor growth inhibition ([4]; Colo-205, 30 mg/kg QDx21) [%] | body weight lost ([4]; Colo-205, 100 mg/kg QD and 30 mg/kg BID, within 10 days of dosing) | tumor growth inhibition ([4]; Colo-205, 100 mg/kg QDx10) [%] | body weight loss ([4]; Colo-205, 30 and 10 mg/kg QDx21)
1 | COc1cc(N2CCC(N3CCCCC3)CC2)ccc1Nc1nccc(-c2c(-c3cccc(C(=O)Nc4c(F)cccc4F)c3)nc3ccccn23)n1 [Example 22, 3-[3-(2-{[4-(1,4′-bipiperidin-1′-yl)-2-(methyloxy)phenyl]amino}-4-pyrimidinyl)imidazo[1,2-a]pyridin-2-yl]-N-(2,6-difluorophenyl)benzamide] | < 250 | < 100 | 250 to 1000 | < 100 |  |  |  |  |  | 
2 | COc1cc(N2CCC(N3CCN(CCF)CC3)CC2)ccc1Nc1nccc(-c2c(-c3cccc(C(=O)Nc4c(F)cccc4F)c3)nc3ccccn23)n1 [Example 57, N-(2,6-difluorophenyl)-3-[3-(2-{[4-{4-[4-(2-fluoroethyl)-1-piperazinyl]-1-piperidinyl}-2-(methyloxy)phenyl]amino}-4-pyrimidinyl)imidazo[1,2-a]pyridin-2-yl]benzamide] | < 250 | < 100 | 250 to 1000 | < 100 | 17 | 49 | 40 | greater than 20% | 72 | no body weight loss
